Experimental data taken from ChEMBL document CHEMBL2202954, “The effect of PLC-γ2 inhibitors on the growth of human tumour cells” (2012).

Experiments:
Type in all cases: functional
NCI-H226 = test: Cytotoxicity against human NCI-H226 cells assessed as cellular growth at 10 uM by SRB assay
TK-10 = test: Cytotoxicity against human TK10 cells assessed as cellular growth at 10 uM by SRB assay
HOP-62 = test: Cytotoxicity against human HOP62 cells assessed as cellular growth at 10 uM by SRB assay
786-0 = test: Cytotoxicity against human 786-0 cells assessed as cellular growth at 10 uM by SRB assay
ACHN = test: Cytotoxicity against human ACHN cells assessed as cellular growth at 10 uM by SRB assay
UO-31 = test: Cytotoxicity against human UO31 cells assessed as cellular growth at 10 uM by SRB assay
A549 = test: Cytotoxicity against human A549 cells assessed as cellular growth at 10 uM by SRB assay
UACC-257 = test: Cytotoxicity against human UACC257 cells assessed as cellular growth at 10 uM by SRB assay
CAKI-1 = test: Cytotoxicity against human Caki1 cells assessed as cellular growth at 10 uM by SRB assay
SN12C = test: Cytotoxicity against human SN12C cells assessed as cellular growth at 10 uM by SRB assay
HT-29 = test: Cytotoxicity against human HT-29 cells assessed as cellular growth at 10 uM by SRB assay
COLO 205 = test: Cytotoxicity against human COLO205 cells assessed as cellular growth at 10 uM by SRB assay
RXF 393 = test: Cytotoxicity against human RXF393 cells assessed as cellular growth at 10 uM by SRB assay
Malme-3M = test: Cytotoxicity against human MALME-3M cells assessed as cellular growth at 10 uM by SRB assay
NCI-H23 = test: Cytotoxicity against human NCI-H23 cells assessed as cellular growth at 10 uM by SRB assay
SK-OV-3 = test: Cytotoxicity against human SKOV3 cells assessed as cellular growth at 10 uM by SRB assay
HCT-15 = test: Cytotoxicity against human HCT15 cells assessed as cellular growth at 10 uM by SRB assay
HCC 2998 = test: Cytotoxicity against human HCC2998 cells assessed as cellular growth at 10 uM by SRB assay
RPMI-8226 = test: Cytotoxicity against human RPMI8226 cells assessed as cellular growth at 10 uM by SRB assay
NCI-H522 = test: Cytotoxicity against human NCI-H522 cells assessed as cellular growth at 10 uM by SRB assay
MOLT-4 = test: Cytotoxicity against human MOLT4 cells assessed as cellular growth at 10 uM by SRB assay
SF-539 = test: Cytotoxicity against human SF539 cells assessed as cellular growth at 10 uM by SRB assay
IGROV-1 = test: Cytotoxicity against human IGROV1 cells assessed as cellular growth at 10 uM by SRB assay
M14 = test: Cytotoxicity against human M14 cells assessed as cellular growth at 10 uM by SRB assay
SW-620 = test: Cytotoxicity against human SW620 cells assessed as cellular growth at 10 uM by SRB assay
EKVX = test: Cytotoxicity against human EKVX cells assessed as cellular growth at 10 uM by SRB assay
CCRF-CEM = test: Cytotoxicity against human CCRF-CEM cells assessed as cellular growth at 10 uM by SRB assay
NCI-H460 = test: Cytotoxicity against human NCI-H460 cells assessed as cellular growth at 10 uM by SRB assay
A498 = test: Cytotoxicity against human A498 cells assessed as cellular growth at 10 uM by SRB assay
HOP-92 = test: Cytotoxicity against human HOP92 cells assessed as cellular growth at 10 uM by SRB assay
MCF7 = test: Cytotoxicity against human MCF7 cells assessed as cellular growth at 10 uM by SRB assay
K562 = test: Cytotoxicity against human K562 cells assessed as cellular growth at 10 uM by SRB assay
U-251 = test: Cytotoxicity against human U251 cells assessed as cellular growth at 10 uM by SRB assay
OVCAR-8 = test: Cytotoxicity against human OVCAR8 cells assessed as cellular growth at 10 uM by SRB assay
UACC-62 = test: Cytotoxicity against human UACC62 cells assessed as cellular growth at 10 uM by SRB assay
SK-MEL-2 = test: Cytotoxicity against human SK-MEL-2 cells assessed as cellular growth at 10 uM by SRB assay
BT-549 = test: Cytotoxicity against human BT549 cells assessed as cellular growth at 10 uM by SRB assay
SF-295 = test: Cytotoxicity against human SF295 cells assessed as cellular growth at 10 uM by SRB assay
PC-3 = test: Cytotoxicity against human PC3 cells assessed as cellular growth at 10 uM by SRB assay
SNB-19 = test: Cytotoxicity against human SNB19 cells assessed as cellular growth at 10 uM by SRB assay
T47D = test: Cytotoxicity against human T47D cells assessed as cellular growth at 10 uM by SRB assay
MDA-MB-435 = test: Cytotoxicity against human MDA-MB-435 cells assessed as cellular growth at 10 uM by SRB assay
SK-MEL-28 = test: Cytotoxicity against human SK-MEL-28 cells assessed as cellular growth at 10 uM by SRB assay
LOX IMVI = test: Cytotoxicity against human LOXIMVI cells assessed as cellular growth at 10 uM by SRB assay
SF-268 = test: Cytotoxicity against human SF268 cells assessed as cellular growth at 10 uM by SRB assay
KM12 = test: Cytotoxicity against human KM12 cells assessed as cellular growth at 10 uM by SRB assay
DU-145 = test: Cytotoxicity against human DU145 cells assessed as cellular growth at 10 uM by SRB assay
Hs-578T = test: Cytotoxicity against human Hs578T cells assessed as cellular growth at 10 uM by SRB assay
NCI-H322M = test: Cytotoxicity against human NCI-H322M cells assessed as cellular growth at 10 uM by SRB assay
MDA-MB-231 = test: Cytotoxicity against human MDA-MB-231 cells assessed as cellular growth at 10 uM by SRB assay
OVCAR-3 = test: Cytotoxicity against human OVCAR3 cells assessed as cellular growth at 10 uM by SRB assay
SNB-75 = test: Cytotoxicity against human SNB75 cells assessed as cellular growth at 10 uM by SRB assay
HCT-116 = test: Cytotoxicity against human HCT116 cells assessed as cellular growth at 10 uM by SRB assay
MDA-MB-468 = test: Cytotoxicity against human MDA-MB-468 cells assessed as cellular growth at 10 uM by SRB assay
SK-MEL-5 = test: Cytotoxicity against human SK-MEL-5 cells assessed as cellular growth at 10 uM by SRB assay
[1] = Cytotoxicity against human NCI-ADR-RES cells assessed as cellular growth at 10 uM by SRB assay
HL-60(TB) = test: Cytotoxicity against human HL-60(TB) cells assessed as cellular growth at 10 uM by SRB assay
SR = test: Cytotoxicity against human SR cells assessed as cellular growth at 10 uM by SRB assay
OVCAR-5 = test: Cytotoxicity against human OVCAR5 cells assessed as cellular growth at 10 uM by SRB assay

Question: Which results are given for Oc1ccccc1-c1nc(-c2cccs2)no1?
Answer: Activity (NCI-H226): 93.28%; Activity (TK-10): 89.67%; Activity (HOP-62): 88.78%; Activity (786-0): 101.07%; Activity (ACHN): 98.95%; Activity (UO-31): 71.94%; Activity (A549): 99.05%; Activity (UACC-257): 96.64%; Activity (CAKI-1): 97.52%; Activity (SN12C): 90.61%; Activity (HT-29): 111.27%; Activity (COLO 205): 111.09%; Activity (RXF 393): 117.42%; Activity (Malme-3M): 105.64%; Activity (NCI-H23): 94.82%; Activity (SK-OV-3): 99.86%; Activity (HCT-15): 64.4%; Activity (HCC 2998): 83.27%; Activity (RPMI-8226): 87.52%; Activity (NCI-H522): 96.76%; Activity (MOLT-4): 99.05%; Activity (SF-539): 104.64%; Activity (IGROV-1): 86.9%; Activity (M14): 106.76%; Activity (SW-620): 95.69%; Activity (EKVX): 89.29%; Activity (CCRF-CEM): 91.77%; Activity (NCI-H460): 95.65%; Activity (A498): 105.68%; Activity (HOP-92): 50.86%; Activity (MCF7): 56.48%; Activity (K562): 96.52%; Activity (U-251): 89.74%; Activity (OVCAR-8): 102.43%; Activity (UACC-62): 89.11%; Activity (SK-MEL-2): 107.16%; Activity (BT-549): 92.36%; Activity (SF-295): 109.56%; Activity (PC-3): 85.02%; Activity (SNB-19): 102.55%; Activity (T47D): 76.43%; Activity (MDA-MB-435): 112.76%; Activity (SK-MEL-28): 115.6%; Activity (LOX IMVI): 100.28%; Activity (SF-268): 112.74%; Activity (KM12): 100.01%; Activity (DU-145): 114.11%; Activity (Hs-578T): 93.55%; Activity (NCI-H322M): 116.66%; Activity (MDA-MB-231): 71.74%; Activity (OVCAR-3): 108.33%; Activity (SNB-75): 90.2%; Activity (HCT-116): 104.63%; Activity (MDA-MB-468): 44.64%; Activity (SK-MEL-5): 88.2%; Activity [1]: 106.13%

Question: With CC1(C)CC(=O)c2cc3c(N)c(C(=O)Nc4ccc(F)cc4)sc3nc2C1 as the compound, how does the Activity (NCI-H226) read?
Answer: 102.68%

Question: And the Activity (TK-10)?
Answer: 105.13%

Question: And the Activity (HOP-62)?
Answer: 114.29%

Question: What about the Activity (786-0) of the same compound?
Answer: 104.75%

Question: And the Activity (ACHN)?
Answer: 112.82%

Question: What about the Activity (UO-31) of the same compound?
Answer: 119.15%

Question: And the Activity (A549)?
Answer: 105.88%

Question: And the Activity (UACC-257)?
Answer: 107.39%

Question: What about the Activity (CAKI-1) of the same compound?
Answer: 98.34%

Question: And the Activity (SN12C)?
Answer: 122.37%

Question: And the Activity (HT-29)?
Answer: 110.56%

Question: And the Activity (COLO 205)?
Answer: 133.12%

Question: And the Activity (RXF 393)?
Answer: 108.89%

Question: And the Activity (Malme-3M)?
Answer: 116.52%

Question: And the Activity (HL-60(TB))?
Answer: 115.83%

Question: What about the Activity (NCI-H23) of the same compound?
Answer: 102%

Question: What about the Activity (SR) of the same compound?
Answer: 111.31%

Question: And the Activity (SK-OV-3)?
Answer: 109.93%

Question: What about the Activity (HCT-15) of the same compound?
Answer: 100.72%

Question: And the Activity (HCC 2998)?
Answer: 105.43%

Question: And the Activity (RPMI-8226)?
Answer: 103.3%

Question: And the Activity (NCI-H522)?
Answer: 102.43%

Question: And the Activity (MOLT-4)?
Answer: 121.66%

Question: And the Activity (SF-539)?
Answer: 96.07%

Question: And the Activity (IGROV-1)?
Answer: 119.45%

Question: What about the Activity (M14) of the same compound?
Answer: 121.48%

Question: And the Activity (SW-620)?
Answer: 106.24%

Question: And the Activity (EKVX)?
Answer: 100.32%

Question: What about the Activity (CCRF-CEM) of the same compound?
Answer: 107.91%

Question: And the Activity (NCI-H460)?
Answer: 104.48%

Question: And the Activity (A498)?
Answer: 87.2%

Question: And the Activity (MCF7)?
Answer: 105.49%

Question: And the Activity (K562)?
Answer: 106.71%

Question: And the Activity (U-251)?
Answer: 101.59%

Question: What about the Activity (OVCAR-8) of the same compound?
Answer: 108.67%

Question: What about the Activity (UACC-62) of the same compound?
Answer: 119.59%

Question: What about the Activity (SK-MEL-2) of the same compound?
Answer: 122.76%

Question: What about the Activity (BT-549) of the same compound?
Answer: 111.85%

Question: What about the Activity (OVCAR-5) of the same compound?
Answer: 92.85%

Question: And the Activity (SF-295)?
Answer: 88.4%

Question: And the Activity (PC-3)?
Answer: 110.47%

Question: And the Activity (SNB-19)?
Answer: 131.09%

Question: And the Activity (T47D)?
Answer: 111.5%

Question: What about the Activity (MDA-MB-435) of the same compound?
Answer: 103.15%

Question: What about the Activity (SK-MEL-28) of the same compound?
Answer: 113.65%

Question: And the Activity (LOX IMVI)?
Answer: 102.36%

Question: And the Activity (SF-268)?
Answer: 124.1%

Question: And the Activity (KM12)?
Answer: 115.29%

Question: What about the Activity (DU-145) of the same compound?
Answer: 122.42%

Question: And the Activity (Hs-578T)?
Answer: 111.09%

Question: What about the Activity (NCI-H322M) of the same compound?
Answer: 110.83%

Question: And the Activity (MDA-MB-231)?
Answer: 112.36%

Question: And the Activity (OVCAR-3)?
Answer: 117.81%

Question: And the Activity (SNB-75)?
Answer: 114.82%

Question: And the Activity (HCT-116)?
Answer: 114.92%

Question: And the Activity (MDA-MB-468)?
Answer: 112.64%

Question: And the Activity (SK-MEL-5)?
Answer: 99.04%

Question: And the Activity [1]?
Answer: 104.25%
